Data taken from ChEMBL document CHEMBL1140824, “Hepatoselectivity of statins: design and synthesis of 4-sulfamoyl pyrroles as HMG-CoA reductase inhibitors” (Bioorg Med Chem Lett, 2008).

Columns and labels:
[1] = molecular target: T1, 3-hydroxy-3-methylglutaryl-coenzyme A reductase (Rattus norvegicus, UniProt P51639); assay: Inhibition of rat microsomal HMGCoA reductase
T1 sequence (P51639 whole entry): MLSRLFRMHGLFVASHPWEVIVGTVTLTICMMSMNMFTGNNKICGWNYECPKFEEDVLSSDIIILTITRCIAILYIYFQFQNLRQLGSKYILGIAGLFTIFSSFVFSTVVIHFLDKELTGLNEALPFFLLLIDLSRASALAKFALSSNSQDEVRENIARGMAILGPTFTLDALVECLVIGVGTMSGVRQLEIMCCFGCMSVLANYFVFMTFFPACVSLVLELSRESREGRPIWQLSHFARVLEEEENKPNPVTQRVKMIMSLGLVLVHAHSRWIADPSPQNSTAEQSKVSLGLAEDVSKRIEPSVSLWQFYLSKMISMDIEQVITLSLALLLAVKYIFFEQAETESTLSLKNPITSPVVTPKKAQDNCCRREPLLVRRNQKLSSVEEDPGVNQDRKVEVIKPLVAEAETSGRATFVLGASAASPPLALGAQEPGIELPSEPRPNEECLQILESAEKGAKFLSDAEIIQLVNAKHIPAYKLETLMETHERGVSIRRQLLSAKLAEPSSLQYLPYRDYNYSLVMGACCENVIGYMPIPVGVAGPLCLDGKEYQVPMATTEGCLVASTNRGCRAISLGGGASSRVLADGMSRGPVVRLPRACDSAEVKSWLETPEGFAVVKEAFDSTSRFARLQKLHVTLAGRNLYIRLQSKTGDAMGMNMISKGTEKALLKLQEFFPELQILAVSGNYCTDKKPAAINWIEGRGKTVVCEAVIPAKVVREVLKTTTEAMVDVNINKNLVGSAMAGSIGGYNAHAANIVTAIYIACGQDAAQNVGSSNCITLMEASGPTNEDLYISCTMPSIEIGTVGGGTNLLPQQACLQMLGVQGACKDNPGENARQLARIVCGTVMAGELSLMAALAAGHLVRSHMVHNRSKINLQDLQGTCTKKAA

Hepatocyte [2] = assay: Inhibition of cholesterol synthesis in rat hepatocyte; type: functional, cell-based
L6 = assay: Inhibition of cholesterol synthesis in rat L6 myocyte; type: functional, cell-based
Hepatocyte [3] = assay: Selectivity, ratio of IC50 for rat L6 myocyte to IC50 for rat hepatocyte; type: functional
Mus musculus = assay: Inhibition of acute cholesterol synthesis in mouse at 1 mg/kg; type: functional; details: read-out: Inhibition
[4] = Cmax in human; type: ADME, organism-based; details: in vivo
Homo sapiens = species on record: Homo sapiens; assay: Incidence of myalgia in human; type: ADME, organism-based; details: in vivo
Syrian golden hamster = assay: Reduction of LDL cholesterol level in syrian golden hamster plasma; type: functional, Mesocricetus auratus
[5] = Ratio of Cmax for human to IC50 for rat L6 myocyte; type: functional

`CC(C)c1c(S(=O)(=O)Nc2cccc(CC(N)=O)c2)c(-c2ccc(F)cc2)c(-c2ccc(F)cc2)n1CC[C@@H](O)C[C@@H](O)CC(=O)[O-].[Na+]` showed an IC50 [1] of 1 nM, an IC50 (Hepatocyte [2]) of 1.4 nM and an IC50 (L6) of 10000 nM. The “Ratio IC50” value (Hepatocyte [3]) was 7299.
With `CC(C)c1c(S(=O)(=O)N2CCSCC2)c(-c2ccc(F)cc2)c(-c2ccc(F)cc2)n1CC[C@@H](O)C[C@@H](O)CC(=O)[O-].[Na+]` the IC50 [1] was 9.7 nM, the IC50 (Hepatocyte [2]) was 3.3 nM and the IC50 (L6) was 5700 nM. The “Ratio IC50” value (Hepatocyte [3]) was 1748 and the inhibition in vivo at 1 mg/kg (Mus musculus) was 15%.
`CCC(C)(C)C(=O)O[C@H]1C[C@@H](C)C=C2C=C[C@H](C)[C@H](CC[C@@H]3C[C@@H](O)CC(=O)O3)[C@H]21` [SIMVASTATIN] gave an IC50 (L6) of 150 nM, a Cmax [4] of 120 nM and an Activity (Homo sapiens) of 18.2%.
With `CC(C)c1c(S(=O)(=O)N2CCCC2)c(-c2ccccc2)c(-c2ccc(F)cc2)n1CC[C@@H](O)C[C@@H](O)CC(=O)[O-].[Na+]` the IC50 [1] was 2.6 nM, the IC50 (Hepatocyte [2]) was 0.5 nM and the IC50 (L6) was 5200 nM. The “Ratio IC50” value (Hepatocyte [3]) was 10400, the inhibition in vivo at 1 mg/kg (Mus musculus) was 75.9% and the Inhibition (Syrian golden hamster) was 38%.
`CNS(=O)(=O)c1c(-c2ccc(F)cc2)c(-c2ccc(F)cc2)n(CC[C@@H](O)C[C@@H](O)CC(=O)O)c1C(C)C` gave an IC50 [1] of 27 nM, an IC50 (Hepatocyte [2]) of 0.22 nM and an inhibition in vivo at 1 mg/kg (Mus musculus) of 33%.
For `CC(C)c1c(S(=O)(=O)Nc2ccc(C(N)=O)cc2)c(-c2ccc(F)cc2)c(-c2ccc(F)cc2)n1CC[C@@H](O)C[C@@H](O)CC(=O)[O-].[Na+]`, the IC50 [1] was 5.8 nM, the IC50 (Hepatocyte [2]) was 1.8 nM and the IC50 (L6) was 2340 nM. The “Ratio IC50” value (Hepatocyte [3]) was 1300 and the inhibition in vivo at 1 mg/kg (Mus musculus) was 34.4%.
Work on `CC(C)c1c(S(=O)(=O)N2CCc3ccccc3C2)c(-c2ccc(F)cc2)c(-c2ccc(F)cc2)n1CC[C@@H](O)C[C@@H](O)CC(=O)[O-].[Na+]` yielded an IC50 [1] of 8.4 nM, an IC50 (Hepatocyte [2]) of 2.5 nM and an IC50 (L6) of 2500 nM. The “Ratio IC50” value (Hepatocyte [3]) was 984.
In the case of `CC(C)c1c(S(=O)(=O)Nc2ccc(S(N)(=O)=O)cc2)c(-c2ccc(F)cc2)c(-c2ccc(F)cc2)n1CC[C@@H](O)C[C@@H](O)CC(=O)[O-].[Na+]`, the IC50 [1] is reported as 4.9 nM, the IC50 (Hepatocyte [2]) is reported as 2.7 nM and the IC50 (L6) is reported as 4380 nM. For the same compound, the “Ratio IC50” value (Hepatocyte [3]) was 1622 and the inhibition in vivo at 1 mg/kg (Mus musculus) was 15%.
`CC(C)c1c(S(=O)(=O)N2CCCCC2)c(-c2ccccc2)c(-c2ccc(F)cc2)n1CC[C@@H](O)C[C@@H](O)CC(=O)[O-].[Na+]` gave an IC50 [1] of 2.9 nM, an IC50 (Hepatocyte [2]) of 0.67 nM and an IC50 (L6) of 7000 nM. For the same compound, the “Ratio IC50” value (Hepatocyte [3]) was 10479 and the inhibition in vivo at 1 mg/kg (Mus musculus) was 56%.
Work on `CC(C)c1c(C(=O)Nc2ccccc2)c(-c2ccccc2)c(-c2ccc(F)cc2)n1CC[C@@H](O)C[C@@H](O)CC(=O)O` [ATORVASTATIN] yielded an IC50 (Hepatocyte [2]) of 0.99 nM, an IC50 (L6) of 142 nM and an inhibition in vivo at 1 mg/kg (Mus musculus) of 75.2%.
Compound `CC(C)c1c(S(=O)(=O)Nc2ccccc2)c(-c2ccc(F)cc2)c(-c2ccc(F)cc2)n1CC[C@@H](O)C[C@@H](O)CC(=O)[O-].[Na+]` has an IC50 [1] of 2 nM, an IC50 (Hepatocyte [2]) of 0.96 nM and an IC50 (L6) of 45 nM. For the same compound, the “Ratio IC50” value (Hepatocyte [3]) was 45.
In the case of `CC(C)c1nc(N(C)S(C)(=O)=O)nc(-c2ccc(F)cc2)c1/C=C/[C@@H](O)C[C@@H](O)CC(=O)O` [ROSUVASTATIN], the IC50 [1] is reported as 3.7 nM, the “Ratio IC50” value (Hepatocyte [3]) is reported as 926 and the inhibition in vivo at 1 mg/kg (Mus musculus) is reported as 82.4%. For the same compound, the Cmax [4] was 75 nM, the Ratio [5] was 0.3 and the Inhibition (Syrian golden hamster) was 62%.
Compound `CC(C)c1c(S(=O)(=O)Nc2ccc(F)cc2)c(-c2ccc(F)cc2)c(-c2ccc(F)cc2)n1CC[C@@H](O)C[C@@H](O)CC(=O)[O-].[Na+]` has an IC50 [1] of 15 nM, an IC50 (Hepatocyte [2]) of 0.47 nM and an IC50 (L6) of 60 nM. For the same compound, the “Ratio IC50” value (Hepatocyte [3]) was 127 and the inhibition in vivo at 1 mg/kg (Mus musculus) was 51.8%.
For `CC(C)c1c(S(=O)(=O)N(C)Cc2ccccc2)c(-c2ccccc2)c(-c2ccc(F)cc2)n1CC[C@@H](O)C[C@@H](O)CC(=O)[O-].[Na+]`, the IC50 [1] was 8.5 nM, the IC50 (Hepatocyte [2]) was 0.25 nM and the IC50 (L6) was 140 nM. The “Ratio IC50” value (Hepatocyte [3]) was 566.
In the case of `CC(C)c1c(S(=O)(=O)N(C)Cc2ccccc2)c(-c2ccc(F)cc2)c(-c2ccc(F)cc2)n1CC[C@@H](O)C[C@@H](O)CC(=O)[O-].[Na+]`, the IC50 [1] is reported as 8 nM, the IC50 (Hepatocyte [2]) is reported as 0.69 nM and the IC50 (L6) is reported as 550 nM. The “Ratio IC50” value (Hepatocyte [3]) was 797.
For `CC[C@H](C)C(=O)O[C@H]1C[C@H](O)C=C2C=C[C@H](C)[C@H](CC[C@@H](O)C[C@@H](O)CC(=O)O)[C@H]21` [PRAVASTATIN], the “Ratio IC50” value (Hepatocyte [3]) was 444, the Cmax [4] was 100 nM and the Ratio [5] was 0.01. The Activity (Homo sapiens) was 10.9%.
Compound `CC(C)c1c(S(=O)(=O)N(C)C)c(-c2ccc(F)cc2)c(-c2ccc(F)cc2)n1CC[C@@H](O)C[C@@H](O)CC(=O)[O-].[Na+]` has an IC50 [1] of 6.1 nM, an IC50 (Hepatocyte [2]) of 0.75 nM and an IC50 (L6) of 1400 nM. For the same compound, the “Ratio IC50” value (Hepatocyte [3]) was 1866, the inhibition in vivo at 1 mg/kg (Mus musculus) was 58.8% and the Inhibition (Syrian golden hamster) was 30%.
In the case of `CC(C)c1c(S(=O)(=O)N2CCN(C)CC2)c(-c2ccccc2)c(-c2ccc(F)cc2)n1CC[C@@H](O)C[C@@H](O)CC(=O)[O-].[Na+]`, the IC50 [1] is reported as 2.7 nM, the IC50 (Hepatocyte [2]) is reported as 3 nM and the IC50 (L6) is reported as 10500 nM. The “Ratio IC50” value (Hepatocyte [3]) was 3559.
In the case of `CC(C)c1c(S(=O)(=O)NCc2ccccc2)c(-c2ccc(F)cc2)c(-c2ccc(F)cc2)n1CC[C@@H](O)C[C@@H](O)CC(=O)[O-].[Na+]`, the IC50 [1] is reported as 13 nM, the IC50 (Hepatocyte [2]) is reported as 0.37 nM and the IC50 (L6) is reported as 2200 nM. For the same compound, the “Ratio IC50” value (Hepatocyte [3]) was 5945 and the inhibition in vivo at 1 mg/kg (Mus musculus) was 58.6%.
`CC(C)c1c(S(=O)(=O)Nc2cccc(C(N)=O)c2)c(-c2ccc(F)cc2)c(-c2ccc(F)cc2)n1CC[C@@H](O)C[C@@H](O)CC(=O)[O-].[Na+]` gave an IC50 [1] of 18 nM, an IC50 (Hepatocyte [2]) of 5 nM and an IC50 (L6) of 36000 nM. For the same compound, the “Ratio IC50” value (Hepatocyte [3]) was 7340.
`CC(C)c1c(S(=O)(=O)Nc2cccc(O)c2)c(-c2ccc(F)cc2)c(-c2ccc(F)cc2)n1CC[C@@H](O)C[C@@H](O)CC(=O)[O-].[Na+]` showed an IC50 [1] of 9.4 nM, an IC50 (Hepatocyte [2]) of 0.4 nM and an IC50 (L6) of 2500 nM. For the same compound, the “Ratio IC50” value (Hepatocyte [3]) was 6250 and the inhibition in vivo at 1 mg/kg (Mus musculus) was 44.2%.
With `CC(C)c1c(S(=O)(=O)N(C)C)c(-c2ccccc2)c(-c2ccc(F)cc2)n1CC[C@@H](O)C[C@@H](O)CC(=O)[O-].[Na+]` the IC50 [1] was 6.5 nM, the IC50 (Hepatocyte [2]) was 0.45 nM and the IC50 (L6) was 1380 nM. For the same compound, the “Ratio IC50” value (Hepatocyte [3]) was 3066.
With `COCc1c(C(C)C)nc(C(C)C)c(/C=C/[C@@H](O)C[C@@H](O)CC(=O)O)c1-c1ccc(F)cc1` [CERIVASTATIN] the IC50 (L6) was 7 nM, the “Ratio IC50” value (Hepatocyte [3]) was 4.1 and the Cmax [4] was 25 nM. The Ratio [5] was 3.6.
With `CC(C)c1c(S(=O)(=O)N2CCOCC2)c(-c2ccccc2)c(-c2ccc(F)cc2)n1CC[C@@H](O)C[C@@H](O)CC(=O)[O-].[Na+]` the IC50 (Hepatocyte [2]) was 0.8 nM, the IC50 (L6) was 10000 nM and the “Ratio IC50” value (Hepatocyte [3]) was 12469. The inhibition in vivo at 1 mg/kg (Mus musculus) was 55.6% and the Inhibition (Syrian golden hamster) was 11%.
For `CC(C)c1c(S(=O)(=O)Nc2ccccc2)c(-c2ccccc2)c(-c2ccc(F)cc2)n1CC[C@@H](O)C[C@@H](O)CC(=O)[O-].[Na+]`, the IC50 [1] was 9 nM, the IC50 (Hepatocyte [2]) was 0.57 nM and the IC50 (L6) was 20 nM. The “Ratio IC50” value (Hepatocyte [3]) was 34 and the inhibition in vivo at 1 mg/kg (Mus musculus) was 49.2%.
Compound `CC(C)c1c(S(=O)(=O)N2CCC2)c(-c2ccccc2)c(-c2ccc(F)cc2)n1CC[C@@H](O)C[C@@H](O)CC(=O)[O-].[Na+]` has an IC50 [1] of 1.8 nM, an IC50 (Hepatocyte [2]) of 1.1 nM and an IC50 (L6) of 2150 nM. The “Ratio IC50” value (Hepatocyte [3]) was 1954 and the inhibition in vivo at 1 mg/kg (Mus musculus) was 34.8%.
